Measurements as given in the NIST ThermoML archive (doi:10.1021/je400408w).

Key:
[1] = 101.33 kPa, Liquid; for speed of sound: Pulse-echo method; for mass density: Vibrating tube method
[2] = molar heat capacity at constant pressure; settings: 100 kPa, Liquid
[3] = molar heat capacity at constant pressure; xn = mol fraction of the nth substance listed; settings: 100 kPa, Liquid

Cc1ccccc1Cl [2-chlorotoluene]
Settings | mass density, 293.15 K [kg/m3] | mass density, 298.15 K [kg/m3] | mass density, 303.15 K [kg/m3] | molar heat capacity at constant pressure, 293.15 K [J/K/mol] | molar heat capacity at constant pressure, 298.15 K [J/K/mol] | molar heat capacity at constant pressure, 303.15 K [J/K/mol] | speed of sound, 293.15 K [m/s] | speed of sound, 298.15 K [m/s] | speed of sound, 303.15 K [m/s]
[1] | 1082.22 | 1077.34 | 1072.46 | – | – | – | 1316.8 | 1298.7 | 1280.7
[2] | – | – | – | 176.43 | 178.21 | 180.01 | – | – | –

O=C1CCCN1 [2-pyrrolidinone]
Settings | mass density, 293.15 K [kg/m3] | mass density, 298.15 K [kg/m3] | mass density, 303.15 K [kg/m3] | molar heat capacity at constant pressure, 293.15 K [J/K/mol] | molar heat capacity at constant pressure, 298.15 K [J/K/mol] | molar heat capacity at constant pressure, 303.15 K [J/K/mol] | speed of sound, 293.15 K [m/s] | speed of sound, 298.15 K [m/s] | speed of sound, 303.15 K [m/s]
[1] | 1111.28 | 1107.15 | 1103.06 | – | – | – | 1651.4 | 1635 | 1618.7
[2] | – | – | – | 168.36 | 169.55 | 171.18 | – | – | –

Cc1cccc(Cl)c1 [3-chlorotoluene]
Settings | mass density, 293.15 K [kg/m3] | mass density, 298.15 K [kg/m3] | mass density, 303.15 K [kg/m3] | molar heat capacity at constant pressure, 293.15 K [J/K/mol] | molar heat capacity at constant pressure, 298.15 K [J/K/mol] | molar heat capacity at constant pressure, 303.15 K [J/K/mol] | speed of sound, 293.15 K [m/s] | speed of sound, 298.15 K [m/s] | speed of sound, 303.15 K [m/s]
[1] | 1072.12 | 1067.23 | 1062.33 | – | – | – | 1313.6 | 1295.5 | 1277.3
[2] | – | – | – | 175.21 | 176.46 | 177.67 | – | – | –

Cc1cccc(Cl)c1 [3-chlorotoluene] + O=C1CCCN1
molar heat capacity at constant pressure [J/K/mol], [3]
Settings | 293.15 K | 298.15 K | 303.15 K
x2 = 0 | 175.21 | 176.46 | 177.67
x2 = 0.0398 | 175.59 | 176.89 | 178.18
x2 = 0.0798 | 176.05 | 177.3 | 178.65
x2 = 0.1089 | 176.37 | 177.6 | 179.06
x2 = 0.1443 | 176.74 | 178.08 | 179.55
x2 = 0.1853 | 177.1 | 178.48 | 179.99
x2 = 0.2234 | 177.49 | 178.84 | 180.42
x2 = 0.2613 | 177.74 | 179.25 | 180.77
x2 = 0.3095 | 178.12 | 179.52 | 181.15
x2 = 0.3452 | 178.21 | 179.69 | 181.37
x2 = 0.3865 | 178.3 | 179.9 | 181.5
x2 = 0.4432 | 178.35 | 179.92 | 181.58
x2 = 0.4836 | 178.22 | 179.73 | 181.43
x2 = 0.5213 | 177.98 | 179.53 | 181.21
x2 = 0.5643 | 177.56 | 179.17 | 180.87
x2 = 0.6074 | 177.17 | 178.68 | 180.45
x2 = 0.6408 | 176.64 | 178.24 | 179.95
x2 = 0.6853 | 175.94 | 177.56 | 179.23
x2 = 0.7214 | 175.28 | 176.81 | 178.55
x2 = 0.7654 | 174.4 | 175.89 | 177.62
x2 = 0.8069 | 173.44 | 174.91 | 176.65
x2 = 0.8453 | 172.56 | 173.94 | 175.71
x2 = 0.8812 | 171.61 | 172.99 | 174.68
x2 = 0.9203 | 170.57 | 171.93 | 173.57
x2 = 0.9564 | 169.6 | 170.88 | 172.55

Cc1ccc(Cl)cc1 [4-chlorotoluene]
Settings | mass density, 293.15 K [kg/m3] | mass density, 298.15 K [kg/m3] | mass density, 303.15 K [kg/m3] | molar heat capacity at constant pressure, 293.15 K [J/K/mol] | molar heat capacity at constant pressure, 298.15 K [J/K/mol] | molar heat capacity at constant pressure, 303.15 K [J/K/mol] | speed of sound, 293.15 K [m/s] | speed of sound, 298.15 K [m/s] | speed of sound, 303.15 K [m/s]
[1] | 1069.27 | 1064.37 | 1059.46 | – | – | – | 1306.5 | 1288.4 | 1270.3
[2] | – | – | – | 175.66 | 177.95 | 180.37 | – | – | –

Cc1ccc(Cl)cc1 [4-chlorotoluene] + CN1CCCC1=O
molar heat capacity at constant pressure [J/K/mol], [3]
Settings | 293.15 K | 298.15 K | 303.15 K
x2 = 0 | 175.66 | 177.95 | 180.37
x2 = 0.0671 | 176.7 | 178.71 | 180.9
x2 = 0.1128 | 177.44 | 179.35 | 181.36
x2 = 0.1487 | 178.03 | 179.8 | 181.81
x2 = 0.1876 | 178.67 | 180.38 | 182.29
x2 = 0.2219 | 179.21 | 180.88 | 182.72
x2 = 0.2615 | 179.85 | 181.44 | 183.16
x2 = 0.2987 | 180.33 | 181.87 | 183.61
x2 = 0.3328 | 180.77 | 182.28 | 183.94
x2 = 0.3728 | 181.29 | 182.72 | 184.22
x2 = 0.4137 | 181.62 | 183.02 | 184.44
x2 = 0.4512 | 181.89 | 183.22 | 184.54
x2 = 0.4928 | 182.07 | 183.31 | 184.53
x2 = 0.5316 | 182.09 | 183.2 | 184.46
x2 = 0.5773 | 181.94 | 182.93 | 184.08
x2 = 0.6154 | 181.61 | 182.53 | 183.54
x2 = 0.6542 | 181.16 | 182.01 | 182.89
x2 = 0.6927 | 180.46 | 181.23 | 182.04
x2 = 0.7326 | 179.54 | 180.21 | 180.88
x2 = 0.7732 | 178.32 | 178.9 | 179.49
x2 = 0.8142 | 176.8 | 177.33 | 177.84
x2 = 0.8315 | 176 | 176.54 | 177.12
x2 = 0.8715 | 174.08 | 174.58 | 175.13
x2 = 0.9153 | 171.57 | 172.16 | 172.62
x2 = 0.9534 | 169.04 | 169.62 | 170.26

Cc1ccc(Cl)cc1 [4-chlorotoluene] + O=C1CCCN1
molar heat capacity at constant pressure [J/K/mol], [3]
Settings | 293.15 K | 298.15 K | 303.15 K
x2 = 0 | 175.66 | 177.95 | 180.37
x2 = 0.0386 | 175.99 | 178.08 | 180.47
x2 = 0.0724 | 176.3 | 178.23 | 180.58
x2 = 0.1123 | 176.65 | 178.52 | 180.66
x2 = 0.1526 | 177.03 | 178.78 | 180.84
x2 = 0.1926 | 177.35 | 179.04 | 180.93
x2 = 0.2317 | 177.67 | 179.22 | 181.06
x2 = 0.2725 | 177.98 | 179.48 | 181.12
x2 = 0.3126 | 178.18 | 179.64 | 181.1
x2 = 0.3516 | 178.38 | 179.7 | 181.14
x2 = 0.3916 | 178.43 | 179.77 | 181.06
x2 = 0.4332 | 178.43 | 179.72 | 180.88
x2 = 0.4753 | 178.35 | 179.67 | 180.61
x2 = 0.5121 | 178.24 | 179.47 | 180.38
x2 = 0.5512 | 177.97 | 179.17 | 180.03
x2 = 0.5925 | 177.61 | 178.79 | 179.53
x2 = 0.6325 | 177.15 | 178.25 | 179.05
x2 = 0.6715 | 176.58 | 177.74 | 178.48
x2 = 0.7122 | 175.92 | 176.99 | 177.81
x2 = 0.7534 | 175.18 | 176.18 | 177
x2 = 0.7921 | 174.31 | 175.32 | 176.22
x2 = 0.8324 | 173.32 | 174.4 | 175.34
x2 = 0.8731 | 172.28 | 173.34 | 174.46
x2 = 0.9123 | 171.14 | 172.21 | 173.5
x2 = 0.9543 | 169.86 | 171 | 172.43

CN1CCCC1=O [N-methylpyrrolidone]
Settings | mass density, 293.15 K [kg/m3] | mass density, 298.15 K [kg/m3] | mass density, 303.15 K [kg/m3] | molar heat capacity at constant pressure, 293.15 K [J/K/mol] | molar heat capacity at constant pressure, 298.15 K [J/K/mol] | molar heat capacity at constant pressure, 303.15 K [J/K/mol] | speed of sound, 293.15 K [m/s] | speed of sound, 298.15 K [m/s] | speed of sound, 303.15 K [m/s]
[1] | 1033.28 | 1028.26 | 1023.49 | – | – | – | 1565.6 | 1546.1 | 1527.3
[2] | – | – | – | 165.44 | 166.22 | 166.92 | – | – | –

CN1CCCC1=O [N-methylpyrrolidone] + Cc1ccc(Cl)cc1
[3], x1 = 1
Settings | molar heat capacity at constant pressure [J/K/mol]
293.15 K | 165.44
298.15 K | 166.22
303.15 K | 166.92

CN1CCCC1=O [N-methylpyrrolidone] + Cc1cccc(Cl)c1
[3], x1 = 1
Settings | molar heat capacity at constant pressure [J/K/mol]
293.15 K | 165.44
298.15 K | 166.22
303.15 K | 166.92

CN1CCCC1=O [N-methylpyrrolidone] + Cc1ccccc1Cl
[3], x1 = 1
Settings | molar heat capacity at constant pressure [J/K/mol]
293.15 K | 165.44
298.15 K | 166.22
303.15 K | 166.92
